Measured values from patent US20230158025A1 (UNIVERSITY OF UTAH RESEARCH FOUNDATION, priority 2020, published 2023).
Read-outs that look alike come from different tables or passages of the source.

Legend:
[1] = rat microsomal stability (RLM); conditions: for half-life: rat, rat liver microsomes
[2] = target: recombinant human GALK1 (Homo sapiens, UniProt P51570); assay: hGALK1 biochemical activity assay (Kinase-Glo Plus, ATP depletion)
Summary of the method: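 Turnover is measured as ATP depletion by Kinase-Glo Plus luminescence after a 1 h room-temperature reaction. Compounds span 11 concentrations, 57.4 μM–0.97 nM, in final 20 mM HEPES pH 8.0 with 5 mM MgCl2. The substrate solution held 35 μM ATP; the added solution held 5 nM human or mouse GALK1 and 100 μM galactose.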

[3] = target: T1, hGALK1m (Homo sapiens, UniProt P51570, E253A/K252A); assay: in vitro hGALK1 activity assay of the structure-based optimisation (Example 12, Tables 17-20); type: biochemical
T1 construct: made in house; host or cells: E. coli HMS174
T1 sequence (P51570 whole entry K252A/E253A): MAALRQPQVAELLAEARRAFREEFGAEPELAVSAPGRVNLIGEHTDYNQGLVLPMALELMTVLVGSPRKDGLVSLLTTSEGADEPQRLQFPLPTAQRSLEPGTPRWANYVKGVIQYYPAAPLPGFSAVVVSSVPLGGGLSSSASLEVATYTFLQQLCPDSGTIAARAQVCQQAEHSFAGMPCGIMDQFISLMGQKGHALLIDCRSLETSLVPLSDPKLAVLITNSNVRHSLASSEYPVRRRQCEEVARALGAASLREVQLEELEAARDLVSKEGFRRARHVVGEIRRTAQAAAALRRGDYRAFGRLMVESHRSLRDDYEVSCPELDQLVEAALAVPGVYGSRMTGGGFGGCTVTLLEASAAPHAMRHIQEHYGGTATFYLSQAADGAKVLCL

[4] = target: recombinant mouse GALK1 (Mus musculus, UniProt Q9R0N0); assay: mGALK1 biochemical activity assay (Kinase-Glo Plus, ATP depletion)
recombinant mouse GALK1, sequence (Q9R0N0 whole entry): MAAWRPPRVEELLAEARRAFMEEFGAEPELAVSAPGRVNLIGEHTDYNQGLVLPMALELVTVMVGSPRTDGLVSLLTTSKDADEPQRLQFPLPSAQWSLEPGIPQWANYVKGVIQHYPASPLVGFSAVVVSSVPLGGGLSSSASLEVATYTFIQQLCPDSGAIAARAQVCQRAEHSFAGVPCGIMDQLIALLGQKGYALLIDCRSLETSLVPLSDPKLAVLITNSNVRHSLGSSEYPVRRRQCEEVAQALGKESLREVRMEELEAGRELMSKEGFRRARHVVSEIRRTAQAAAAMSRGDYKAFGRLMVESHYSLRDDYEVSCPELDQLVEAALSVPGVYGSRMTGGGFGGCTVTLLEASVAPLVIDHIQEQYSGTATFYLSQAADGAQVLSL
Summary of the method: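 Recombinant GALK1 (5 nM) with 100 μM galactose; GALK1 turnover read as ATP depletion by Kinase-Glo Plus luminescence. Reaction ran 1 h at room temperature before detection reagent was added.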

[5] = PAMPA permeability; conditions: for Papp: ADME P: PAMPA permeability (class), Tables 17-19, class probably colour-coded, colour lost
[6] = aqueous kinetic solubility
[7] = Tables 2-15, 35 μM ATP, 100 μM galactose, 1 h, bracketed figure after some values (e.g. −1.2) is undefined and not reported, read-out: hGALK IC50
[8] = recombinant human GALK1, Kinase-Glo Plus ATP depletion, read-out: hGALK
[9] = Tables 18-19, read-out: Max Response (%)
[10] = Tables 18-19 and text of Example 12
[11] = Tables 2-15, 35 μM ATP, 100 μM galactose, 1 h, bracketed figure after some values is undefined and not reported, read-out: mGALK IC50
[12] = recombinant mouse GALK1, Kinase-Glo Plus ATP depletion, read-out: mGALK
[13] = 1 h, Table 17, read-out: Efficacy
[14] = Table 17, amide group optimization, no unit in table

recombinant human GALK1, sequence (P51570 whole entry): as the sequence (P51570 whole entry K252A/E253A) above, with A252K, A253E counted along it

Structure (SMILES) | Metab. Stabil. (m) ([1]; microsomal half-life) | half-life [1] | IC50 [2, 7] | IC50 [2, 8] | change of potency versus parent compound (in words) [3] | Emax [3, 9] | IC50 [3, 10] | IC50 [4, 11] | IC50 [4, 12] | Perm. (1 × 10^−6 cm/sec) [5] | Papp ([5]; PAMPA) | Sol. [6] | mGALK IC50 ([4]; Tables 2-15, 35 μM ATP, 100 μM galactose, 1 h, bracketed figure after some values is undefined and not reported) | mGALK (μM) ([4]; recombinant mouse GALK1, Kinase-Glo Plus ATP depletion) | Metab. Stabil. (m) ([1]; microsomal stability half-life) | Emax [3, 13] | IC50 [3, 14] | Sol. ([6]; aqueous kinetic solubility) | Perm. (1 × 10^−6 cm/sec) ([5]; PAMPA)
CC1=C(C(=O)Nc2cc(C(=O)O)ccn2)C(c2cccc(C(N)=O)c2)N=C(Nc2nc3ccc(F)cc3o2)N1 (stereo not drawn) [Compound 76, 2-(4-(3-carbamoylphenyl)-2-((6-fluorobenzo[d]oxazol-2-yl)amino)-6-methyl-1,4-dihydropyrimidine-5-carboxamido)isonicotinic acid] | >30 m | < 10 min | 7.69 µM | 7.69 µM | significantly impaired the potency | 90% | 3.8 µM | 21.7 µM | 21.7 µM | <1 1 × 10^−6 cm/sec | < 10 ×10⁻⁶ cm/s | >78 µg/mL |  |  |  |  |  |  | 
CC1=C(C(=O)Nc2cc(C(=O)O)ccn2)C(c2cccc(C(F)(F)F)c2)N=C(Nc2nc3ccc(F)cc3o2)N1 (stereo not drawn) [Compound 77, 2-(2-((6-fluorobenzo[d]oxazol-2-yl)amino)-6-methyl-4-(3-(trifluoromethyl)phenyl)-1,4-dihydropyrimidine-5-carboxamido)isonicotinic acid] | >30 m | < 10 min | 19.3 µM | 19.3 µM | compromised the potency | 90% | > 15 µM |  |  | <1 1 × 10^−6 cm/sec | < 10 ×10⁻⁶ cm/s | 60.1 µg/mL | inactive | in- active |  |  |  |  | 
CC1=C(C(=O)Nc2cc(C(=O)O)ccn2)C(c2cccc(S(N)(=O)=O)c2)N=C(Nc2nc3ccc(F)cc3o2)N1 (stereo not drawn) [Compound 78, 2-(2-((6-fluorobenzo[d]oxazol-2-yl)amino)-6-methyl-4-(3-sulfamoylphenyl)-1,4-dihydropyrimidine-5-carboxamido)isonicotinic acid] | >30 m | < 10 min | 17.2 µM | 17.2 µM | significantly impaired the potency | 75% | > 15 µM | 38.5 µM | 38.5 µM |  | < 10 ×10⁻⁶ cm/s | >84 µg/mL |  |  |  |  |  |  | 
CC1=C(C(=O)Nc2ccccc2)C(c2ccccc2Cl)N=C(Nc2nc3ccccc3o2)N1 (stereo not drawn) [Compound 137, 2-(benzo[d]oxazol-2-ylamino)-4-(2-chlorophenyl)-6-methyl-N-phenyl-1,4-dihydropyrimidine-5-carboxamide] |  | < 10 min | 10.9 µM |  |  | 100% | 0.97 µM | 13.7 µM | 13.7 µM |  | < 10 ×10⁻⁶ cm/s |  |  |  | 24 m | 57% | 6.9 µM | <1 µg/mL | 
CC1=C(C(=O)Nc2cccc(C(=O)O)c2)C(c2ccccc2Cl)N=C(Nc2nc3ccccc3o2)N1 (stereo not drawn) [Compound 142, 3-(2-(benzo[d]oxazol-2-ylamino)-4-(2-chlorophenyl)-6-methyl-1,4-dihydropyrimidine-5-carboxamido)benzoic acid] |  | < 10 min |  | 2.43 µM |  |  |  | 6.11 µM | 6.11 µM |  | < 10 ×10⁻⁶ cm/s |  |  |  | >30 m | 96% | 3.1 µM | 59.1 µg/mL | <1 1 × 10^−6 cm/sec
CC1=C(C(=O)Nc2ccc(C(=O)O)cc2)C(c2ccccc2Cl)N=C(Nc2nc3ccccc3o2)N1 (stereo not drawn) [Compound 143, 4-(2-(benzo[d]oxazol-2-ylamino)-4-(2-chlorophenyl)-6-methyl-1,4-dihydropyrimidine-5-carboxamido)benzoic acid] |  | < 10 min | 1.53 µM |  |  |  |  | 6.11 µM | 6.11 µM |  | < 10 ×10⁻⁶ cm/s |  |  |  | >30 m | 100% | 1.4 µM | <1 µg/mL | 3.6 1 × 10^−6 cm/sec
CC1=C(C(=O)Nc2nnc(C)s2)C(c2ccccc2Cl)N=C(Nc2nc3ccccc3o2)N1 (stereo not drawn) [Compound 173, 2-(benzo[d]oxazol-2-ylamino)-4-(2-chlorophenyl)-6-methyl-N-(5-methyl-1,3,4-thiadiazol-2-yl)-1,4-dihydropyrimidine-5-carboxamide] |  | < 10 min | 5.44 µM |  |  |  |  | 10.9 µM |  |  | < 10 ×10⁻⁶ cm/s |  |  |  | >30 m | 95% | 3.9 µM | <1 µg/mL | 23.75 1 × 10^−6 cm/sec
CC1=C(C(=O)Nc2nncs2)C(c2ccccc2Cl)N=C(Nc2nc3ccccc3o2)N1 (stereo not drawn) [Compound 205, 2-(benzo[d]oxazol-2-ylamino)-4-(2-chlorophenyl)-6-methyl-N-(1,3,4-thiadiazol-2-yl)-1,4-dihydropyrimidine-5-carboxamide] |  | < 10 min | 3.85 µM | 3.85 µM |  |  |  | 7.69 µM | 7.69 µM |  | < 10 ×10⁻⁶ cm/s |  |  |  | >30 m | 96% | 3.4 µM | <1 µg/mL | 207.3 1 × 10^−6 cm/sec
CC1=C(C(=O)NCc2cncn2C)C(c2ccccc2Cl)N=C(Nc2nc3ccccc3o2)N1 (stereo not drawn) [Compound 230, 2-(benzo[d]oxazol-2-ylamino)-4-(2-chlorophenyl)-6-methyl-N-((1-methyl-1H-imidazol-5-yl)methyl)-1,4-dihydropyrimidine-5-carboxamide] |  | < 10 min |  | 1.72 µM |  |  |  | 6.85 µM | 6.85 µM |  | < 10 ×10⁻⁶ cm/s |  |  |  | 8.8722 m | 98% | 1.4 µM | 42.0 µg/mL | 98.8 1 × 10^−6 cm/sec
CC1=C(C(=O)NCc2nccn2C)C(c2ccccc2Cl)N=C(Nc2nc3ccccc3o2)N1 (stereo not drawn) [Compound 231] |  | < 10 min |  | 15.3 µM |  |  |  | 13.7 µM | 13.7 µM |  | < 10 ×10⁻⁶ cm/s |  |  |  | 6.415 m | 94% | 11 µM | 23.0 µg/mL | >1113 1 × 10^−6 cm/sec
CC1=C(C(=O)NCc2cncs2)C(c2ccccc2Cl)N=C(Nc2nc3ccccc3o2)N1 (stereo not drawn) [Compound 232, 2-(benzo[d]oxazol-2-ylamino)-4-(2-chlorophenyl)-6-methyl-N-(thiazol-5-ylmethyl)-1,4-dihydropyrimidine-5-carboxamide] |  | < 10 min | 1.93 µM | 1.93 µM |  |  |  | 12.2 µM | 12.2 µM |  | < 10 ×10⁻⁶ cm/s |  |  |  | 6.432 m | 84% | 1.2 µM | <1 µg/mL | 507.4 1 × 10^−6 cm/sec
